Measurements: publication PMC4833353 (PLoS Pathogens, 2016)
Values joined by “and” are separate entries in the source; they are usually repeats but may differ in a detail not shown here. Identical values can stand only once.

Columns and labels:
ET CTB [1] = molecular target: T1, ET CTB (Vibrio cholerae serotype O1, UniProt P01556); assay: biochemical; type: binding; settings: for Kd: K D
ET CTB [2] = molecular target: T1, ET CTB; type: binding

T1 sequence (P01556 22-124 limits assumed): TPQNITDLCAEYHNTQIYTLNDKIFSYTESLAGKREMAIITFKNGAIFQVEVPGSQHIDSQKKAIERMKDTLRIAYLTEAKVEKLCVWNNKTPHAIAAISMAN

| Compound | binding affinity (in words) (ET CTB [1]) | Kd (ET CTB [1]) | binding to CTB (ET CTB [1]) | binding of ET CTB to GM1-coated wells after preincubation with ligand (ET CTB [2]) |
| --- | --- | --- | --- | --- |
| CC(=O)N[C@@H]1[C@@H](O[C@@H]2O[C@@H](C)[C@@H](O)[C@@H](O)[C@@H]2O)[C@H](O[C@@H]2O[C@H](CO)[C@H](O)[C@H](O[C@H]3O[C@H](CO)[C@H](O)[C@H](O)[C@H]3NC(C)=O)[C@H]2O[C@@H]2O[C@@H](C)[C@@H](O)[C@@H](O)[C@@H]2O)[C@@H](CO)O[C@H]1O [A-penta-BGA, GalNAcα3[Fucα2]Galβ4[Fucα3]GlcNAc] | binding very weakly | > 30 mM | – | – |
| GalNAcα3[Fucα2]Galβ3[Fucα4]GlcNAc | – | – | very weak to no binding | – |
| CC(=O)N[C@H]1[C@@H](O[C@H]2[C@@H](O)[C@@H](CO)O[C@@H](O[C@H]3[C@H](O[C@@H]4O[C@@H](C)[C@@H](O)[C@@H](O)[C@@H]4O)[C@@H](O)[C@H](O)O[C@@H]3CO)[C@@H]2O[C@@H]2O[C@@H](C)[C@@H](O)[C@@H](O)[C@@H]2O)O[C@H](CO)[C@H](O)[C@@H]1O [A-penta-HMO, GalNAcα3[Fucα2]Galβ4[Fucα3]Glc] | – | 4.6 mM and 4.57 mM | – | interfered with binding of CTB to GM1 |
